Laboratory results from patent EP3052475B1, “PHARMACEUTICAL USE OF 3-BENZYLSULFONYLPROPIONITRILE” (Olatec Therapeutics LLC, priority 2013, dated 2015).

What was measured:
[1] = test system: arachidonic acid-induced ear swelling; assay: topical arachidonic acid-induced ear swelling model in mice; type: in vivo, Male ICR mice; details: inhibition of ear swelling vs vehicle, measured at 90 minutes after arachidonic acid application; topical application 30 min before and 15 min after arachidonic acid; indomethacin 14 mM (0.1 mg/20 µL, n=5), test compound 375 mM (1.0 mg/20 µL, n=10); P <0.001
Experimental: 3-Benzylsulfonylpropionitrile, prepared from Example 1, was used in this experiment.
The test compound, indomethacin (positive control), and vehicle were evaluated for anti-inflammatory activity in a topical arachidonic acid-induced ear swelling model in mice.
Male ICR mice weighing 22 ± 2 g were used and randomly divided; the test compound and vehicle control had 10 mice, and indomethacin had 5 mice. Arachidonic Acid (0.5 mg in 20 µl of acetone:ethanol/1:1) was applied topically to the anterior and posterior surfaces of the right ear of each mice. Test substances and vehicle, as listed in Table 1 were similarly applied 30 min before and 15 min after arachidonic acid application. The thickness of the right ear and the left ear was measured and the difference calculated as an indication of the inflammation in the right ear. Ear swelling was measured by a Dyer model micrometer gauge at 60 and 90 minutes after arachidonic acid application as an index of inflammation. Percent inhibition was calculated according to the formula: Ic - It/Ic x 100, where Ic and It refers to increase of ear thickness (mm) in control and treated mice, respectively. ANOVA and Dunnett's test were employed to ascertain significant difference between vehicle control and treated groups. Significance is set at P<0.05 level.

[2] = test system: tail flick reaction to heat; assay: tail flick test in mice (49°C water bath); type: in vivo
Experimental: The tail flick test is a test of the pain response in animals. The tail flick test is used in basic pain research and to measure the effectiveness of analgesics, by observing the tail flick reaction to heat in an animal. This test assesses the nociceptive response to a local pain stimulus, and the ability of a drug to inhibit this response. […] The test compound was administered at a dosage of 500 mg/kg in DMSO. […] Each group had 10 mice. The response of mice to heat stimulus was evaluated by measuring the time of tail-flick or tail-flick latency from 49°C water bath. Briefly, the animal was held with its tail hanging down. Approximately 2 inches of the tail was immersed in a beaker of water at 38±1 °C for about 30 seconds, and this was done twice to acclimate the animal to the procedure. Subsequently, approximately 2 inches of the tail was immersed in a beaker of water at 49±1°C, at which point a timer was started. […] An ANOVA was done, and if p<0.05, a Dunnett's t test was employed to calculate significant difference between vehicle control and test compound treated groups. […] Results of tail flick response from each group are calculated as mean ± SEM (standard error of mean).

Row | Compound | % Inhibition [1] [%] | tail flick latency compared with vehicle-treated mice ([2]; 500 mg/kg in DMSO, oral gavage, measured at 30, 60 and 120 minutes post dosing, n=10, significance p<0.05) | tail flick latency compared with vehicle-treated mice ([2]; mouse, in vivo)
1 | N#CCCS(=O)(=O)Cc1ccccc1 [3-Benzylsulfonylpropionitrile, 3-benzylsulfonylpropionitrile] | 35 | statistically significant tail flick latency at 30, 60, and 120 minutes | 
2 | CN1CC[C@]23c4c5ccc(O)c4O[C@H]2[C@@H](O)C=C[C@H]3[C@H]1C5 [morphine, reference compound] |  |  | statistically significant tail flick latency at 30 and 60 minutes, but not 120 minutes
